{
  "source": "patent US20100240656A1",
  "about": "“COMPOUNDS AS HSP90 INHIBITORS” (ORYZON GENOMICS, S.A., priority 2007, published 2010)",
  "key": {"K-562": {"test_system": "K-562", "assay": "Cell proliferation by MTT method, K-562", "type": "cell-based", "conditions": "Homo sapiens", "experimental": "(§1) The objective of this study was to determine the influence of the compounds on cell proliferation of K-562, A-549, MCF-7, HeLa, WI-38 by MTT method. The compounds were tested over a three-fold dilution series in triplicate for the determination of EC50 of their influence on cell proliferation.\n(§2) The assay is based on the cleavage of the yellow tetrazolium salt MTT into purple formazan by metabolically active cells. The MTT formazan crystals are insoluble in aqueous solution, but may be solubilized by adding the 10% SDS, then incubating the plates overnight in a humidified atmosphere (e.g., 37° C., 5% CO2). The solubilized formazan product can be photometrically quantitated using Tecan reader. An increase in the number of living cells results in an increase of total metabolic activity, which leads to a stronger color formation.\n(§3) EC50 values are defined as the compound concentration at which 50% of reaction product is formed.\n(§4) Test compounds were dissolved to 10 mM in 100% DMSO.\n(§5) In the day of the experiment cells were seeded into all wells of 96-well plates. Serial dilution of compounds was performed in a separate 96-well plate at 20 times final assay concentration in cell culture medium (DMEM with 10% Fetal Bovine Serum). 5 μl of compound was transferred to 96-well plate containing seeded cells in cell culture medium (final total volume=100 μl). Cells were cultured in the presence of the respective test substances in the 96-well plate at 37° C. in a humidified 5% CO2 incubator for a certain period of time (24, 72 or 120 hours). Then 5 μL of thiazolyl blue tetrazolium bromide (MTT) 5 mg/mL was added to the cells and the cells were reincubated 4 hours in a humidified 5% CO2 incubator. Then 10% SDS was added into the each well. The reaction product was quantified by measuring the absorbance at 568 nm using a scanning multiwell spectrophotometer Tecan. The developed color and thereby the absorbance values directly correlate to the number of the living cells.\n(§6) The data were analyzed using Microsoft Excel 2000, GraphPad Prism 3.03. […]"}, "[1]": {"test_system": "Hsp90 client proteins (c-Raf-1, Cdk4, Her2) and co-chaperone Hsp70", "assay": "Determination of biomarkers in cell cultures (western blot, MCF7 cells)", "type": "cell-based, human", "conditions": "33 and 100 μM, 72 hours", "source_text": "FIG. 1 is a western blot analysis to determine the protein levels of Hsp90 client proteins (c-Raf-1, Cdk4, and Her2) and the co-chaperone Hsp70 upon treatment with increasing concentrations of example 6 (compound of the invention) and 17AAG (which is known in the state of the art as a degradation promoter).\nThe aim of this study was to determine the influence of example 6 on the levels of pharmacodynamic biomarkers such as c-Raf-1, Cdk4, Her2 and Hsp70, indicative that the effect observed in cell viability is mediated through inhibition of Hsp90. GADPH was used as a control of protein loading.\nMCF7 cells (1×10^6) were seeded on tissue culture dishes and allowed to grow overnight at 37° C. with 5% CO2. Cells were treated with example 6 compound (at 33 and 100 μM) and the known Hsp90 inhibitor 17AAG (at […]). 0.5% DMSO was used as control. […] Protein concentration was measured by the Bradford method (Bio-Rad Protein Assay, Bio-Rad). […] Following appropriate secondary antibody incubation for 1 h at room temperature (anti-rabbit IgG-HRP, NA934V, Amersham Biosciences, diluted 1:8000; anti-mouse IgG-HRP, sc-2061, Santa Cruz Biotechnology, diluted 1:2500 and, anti-goat IgG-HRP, sc-31154, Santa Cruz Biotechnology, diluted 1:3500), the specific protein signals were detected using the ECL-Plus Western blotting detection system (GE Healthcare) according to the manufacturer's instructions. […]"}, "WI-38": {"test_system": "WI-38", "assay": "Cell proliferation by MTT method, WI-38", "type": "cell-based", "conditions": "Homo sapiens", "experimental": "as §1, §2, §3, §4, §5, §6"}, "HeLa": {"test_system": "HeLa", "assay": "Cell proliferation by MTT method, HeLa", "type": "cell-based", "conditions": "Homo sapiens", "experimental": "as §1, §2, §3, §4, §5, §6"}},
  "note": "Entries after “also recorded” stand apart in the source; their conditions may differ.",
  "data": [
    {"smiles": "NCCCCCn1c(Sc2cc3c(cc2I)OCO3)nc(C(N)=O)c1N", "note": "[Example 6, 5-amino-1-(5-amino-pentyl)-2-(6-iodo-benzo[1,3]dioxol-5-ylsulfanyl)-1H-imidazole-4-carboxamide]", "values": [
      {"measurement": "EC50", "setting": "K-562; K562, 24 h, K 562, incubation 1 day", "result": "> 100", "unit": "µM"},
      {"measurement": "EC50", "setting": "K-562; K562, 72 h, K 562, incubation 3 days", "result": 12.2, "unit": "µM"},
      {"measurement": "EC50", "setting": "K-562; K562, 120 h, K 562, incubation 5 days", "result": 9.1, "unit": "µM"},
      {"measurement": "protein levels of Hsp90 client proteins (c-Raf-1, Cdk4, Her2) and co-chaperone Hsp70 by western blot", "setting": "[1]", "result": "acts in a similar way that 17AAG; also recorded: there is a specific interaction with hsp90 target in cells"},
      {"measurement": "EC50", "setting": "WI-38; 24 h, WI-38, incubation 1 day", "result": "> 100", "unit": "µM"},
      {"measurement": "EC50", "setting": "WI-38; 72 h, WI-38, incubation 3 days", "result": 27.7, "unit": "µM"},
      {"measurement": "EC50", "setting": "WI-38; 120 h, WI-38, incubation 5 days", "result": 19.5, "unit": "µM"},
      {"measurement": "EC50", "setting": "HeLa; 24 h, incubation 1 day", "result": "> 100", "unit": "µM"},
      {"measurement": "EC50", "setting": "HeLa; 72 h, incubation 3 days", "result": 14.6, "unit": "µM"},
      {"measurement": "EC50", "setting": "HeLa; 120 h, incubation 5 days", "result": 8.6, "unit": "µM"}
    ]}
  ]
}
